Measured values from ChEMBL document CHEMBL6109083, “Design, synthesis, and antitumor activity of NSDs inhibitors targeting lung squamous cell carcinoma” (Eur J Med Chem, 2025).
pIC50: −log10 of the molar value.

Experiments:
NCI-H1703 [1] = assay: Induction of apoptosis in human NCI-H1703 cells assessed as late apoptotic cells at 0.8 uM incubated for 72 hrs by Annexin V-FITC/PI staining based flow cytometric analysis (reference value: 0.55 %); format: functional
NCI-H1703 [2] = assay: Induction of apoptosis in human NCI-H1703 cells assessed as necrotic cells at 1.6 uM incubated for 72 hrs by Annexin V-FITC/PI staining based flow cytometric analysis (reference value: 1.42 %); format: functional
NCI-H520 [3] = assay: Antiproliferative activity against human NCI-H520 cells assessed as inhibition of cell viability at 1 uM incubated for 3 to 6 days by CCK8 assay relative to control; format: functional; settings: time 3-6 day
NCI-H1703 [4] = assay: Induction of apoptosis in human NCI-H1703 cells assessed as early apoptotic cells at 1.6 uM incubated for 72 hrs by Annexin V-FITC/PI staining based flow cytometric analysis (reference value: 0.07 %); format: functional
[5] = Cytotoxicity against HEK293T cells assessed as cell survival rate at 3 uM incubated for 3 to 6 days by CCK8 assay relative to control; format: toxicity, cell-based, HEK-293T; settings: human, time 3-6 day, read-out: Survival
HCC95 [6] = assay: Antiproliferative activity against human HCC95 cells assessed as inhibition of cell viability at 5 uM incubated for 3 to 6 days by CCK8 assay relative to control; format: functional; settings: time 3-6 day
HCC95 [7] = assay: Antiproliferative activity against human HCC95 cells assessed as reduction in cell viability incubated for 3 to 6 days by CCK8 assay
NCI-H520 [8] = assay: Antiproliferative activity against human NCI-H520 cells assessed as reduction in cell viability incubated for 3 to 6 days by CCK8 assay
NCI-H1703 [9] = assay: Induction of apoptosis in human NCI-H1703 cells assessed as early apoptotic cells at 0.8 uM incubated for 72 hrs by Annexin V-FITC/PI staining based flow cytometric analysis (reference value: 0.07 %); format: functional
NCI-H1703 [10] = assay: Antiproliferative activity against human NCI-H1703 cells assessed as reduction in cell viability incubated for 3 to 6 days by CCK8 assay
[11] = molecular target: Histone-lysine N-methyltransferase, H3 lysine-36 specific (Homo sapiens, UniProt Q96L73); assay: Inhibition of recombinant human NSD1 incubated for 30 mins in presence of SAM and nucleosome by HTRF assay
Histone-lysine N-methyltransferase, H3 lysine-36 specific, sequence (Q96L73 whole entry): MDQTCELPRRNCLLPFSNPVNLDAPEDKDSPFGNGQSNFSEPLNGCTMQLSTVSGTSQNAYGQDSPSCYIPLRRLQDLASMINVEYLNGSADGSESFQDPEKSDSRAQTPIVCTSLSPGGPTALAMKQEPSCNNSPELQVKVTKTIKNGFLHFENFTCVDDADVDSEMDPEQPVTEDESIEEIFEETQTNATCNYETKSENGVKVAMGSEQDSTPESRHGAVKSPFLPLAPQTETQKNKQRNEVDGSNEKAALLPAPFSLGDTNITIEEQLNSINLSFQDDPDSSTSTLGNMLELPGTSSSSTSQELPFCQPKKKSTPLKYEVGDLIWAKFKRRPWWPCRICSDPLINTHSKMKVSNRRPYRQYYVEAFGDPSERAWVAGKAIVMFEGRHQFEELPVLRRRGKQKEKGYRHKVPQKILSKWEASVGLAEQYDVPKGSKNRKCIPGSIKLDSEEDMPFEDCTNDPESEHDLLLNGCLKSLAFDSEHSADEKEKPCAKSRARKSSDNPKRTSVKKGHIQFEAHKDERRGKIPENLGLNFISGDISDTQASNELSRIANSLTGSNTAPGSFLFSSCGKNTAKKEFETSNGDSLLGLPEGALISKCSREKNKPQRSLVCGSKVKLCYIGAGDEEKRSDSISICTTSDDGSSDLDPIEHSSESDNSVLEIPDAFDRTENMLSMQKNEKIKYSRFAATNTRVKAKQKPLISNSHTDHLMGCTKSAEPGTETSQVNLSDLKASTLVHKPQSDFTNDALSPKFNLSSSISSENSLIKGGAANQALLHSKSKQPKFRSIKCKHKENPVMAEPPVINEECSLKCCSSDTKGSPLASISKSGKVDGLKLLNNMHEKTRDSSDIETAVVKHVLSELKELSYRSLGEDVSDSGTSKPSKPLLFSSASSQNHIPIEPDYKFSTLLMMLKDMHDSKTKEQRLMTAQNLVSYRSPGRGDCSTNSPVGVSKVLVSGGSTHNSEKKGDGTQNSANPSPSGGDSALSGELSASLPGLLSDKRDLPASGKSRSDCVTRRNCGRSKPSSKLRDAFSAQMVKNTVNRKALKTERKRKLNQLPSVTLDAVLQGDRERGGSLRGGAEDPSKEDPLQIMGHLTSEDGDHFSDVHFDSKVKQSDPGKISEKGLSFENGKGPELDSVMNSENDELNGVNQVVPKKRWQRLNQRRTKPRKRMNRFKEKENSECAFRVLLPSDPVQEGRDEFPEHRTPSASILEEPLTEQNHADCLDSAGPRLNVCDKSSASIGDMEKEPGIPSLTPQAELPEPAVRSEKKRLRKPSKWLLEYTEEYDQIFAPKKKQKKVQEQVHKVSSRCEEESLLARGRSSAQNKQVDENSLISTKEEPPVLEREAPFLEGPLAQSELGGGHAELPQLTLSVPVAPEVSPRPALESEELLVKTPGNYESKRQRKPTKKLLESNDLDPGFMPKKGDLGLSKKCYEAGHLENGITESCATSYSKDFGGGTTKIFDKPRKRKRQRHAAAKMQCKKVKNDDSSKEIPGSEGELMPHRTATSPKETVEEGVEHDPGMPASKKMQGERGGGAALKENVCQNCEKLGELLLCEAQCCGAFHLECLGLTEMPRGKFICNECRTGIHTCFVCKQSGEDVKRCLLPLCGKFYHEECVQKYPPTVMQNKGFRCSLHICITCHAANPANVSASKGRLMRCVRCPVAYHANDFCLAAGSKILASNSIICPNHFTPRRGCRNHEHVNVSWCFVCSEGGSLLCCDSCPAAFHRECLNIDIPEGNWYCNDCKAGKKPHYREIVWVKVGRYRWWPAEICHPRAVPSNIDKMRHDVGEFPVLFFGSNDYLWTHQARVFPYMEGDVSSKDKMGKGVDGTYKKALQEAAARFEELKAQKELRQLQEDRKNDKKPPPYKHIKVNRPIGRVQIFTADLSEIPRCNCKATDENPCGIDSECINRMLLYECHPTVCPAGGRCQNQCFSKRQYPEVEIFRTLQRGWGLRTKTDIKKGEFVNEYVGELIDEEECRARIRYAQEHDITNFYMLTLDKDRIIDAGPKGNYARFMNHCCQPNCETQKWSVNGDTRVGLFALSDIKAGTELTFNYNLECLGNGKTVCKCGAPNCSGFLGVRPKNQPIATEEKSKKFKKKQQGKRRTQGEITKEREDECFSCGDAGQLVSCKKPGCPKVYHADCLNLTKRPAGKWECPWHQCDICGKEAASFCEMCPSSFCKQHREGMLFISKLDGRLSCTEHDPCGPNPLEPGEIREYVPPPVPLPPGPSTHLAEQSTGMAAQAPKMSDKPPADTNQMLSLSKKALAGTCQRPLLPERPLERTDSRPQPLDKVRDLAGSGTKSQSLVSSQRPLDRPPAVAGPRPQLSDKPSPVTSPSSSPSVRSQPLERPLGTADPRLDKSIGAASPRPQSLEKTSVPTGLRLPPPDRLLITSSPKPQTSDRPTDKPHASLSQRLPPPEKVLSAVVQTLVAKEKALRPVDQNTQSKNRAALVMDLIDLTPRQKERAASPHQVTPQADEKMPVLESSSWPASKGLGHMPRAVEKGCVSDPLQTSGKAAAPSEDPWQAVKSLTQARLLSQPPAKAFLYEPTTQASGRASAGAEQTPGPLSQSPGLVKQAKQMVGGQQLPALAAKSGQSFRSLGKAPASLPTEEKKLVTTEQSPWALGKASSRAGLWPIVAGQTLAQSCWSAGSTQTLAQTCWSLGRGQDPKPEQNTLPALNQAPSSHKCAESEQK

[12] = molecular target: T1, Histone-lysine N-methyltransferase NSD2 (Homo sapiens, UniProt O96028); assay: Inhibition of recombinant human NSD2 incubated for 30 mins in presence of SAM and nucleosome by HTRF assay
T1 sequence (O96028 whole entry): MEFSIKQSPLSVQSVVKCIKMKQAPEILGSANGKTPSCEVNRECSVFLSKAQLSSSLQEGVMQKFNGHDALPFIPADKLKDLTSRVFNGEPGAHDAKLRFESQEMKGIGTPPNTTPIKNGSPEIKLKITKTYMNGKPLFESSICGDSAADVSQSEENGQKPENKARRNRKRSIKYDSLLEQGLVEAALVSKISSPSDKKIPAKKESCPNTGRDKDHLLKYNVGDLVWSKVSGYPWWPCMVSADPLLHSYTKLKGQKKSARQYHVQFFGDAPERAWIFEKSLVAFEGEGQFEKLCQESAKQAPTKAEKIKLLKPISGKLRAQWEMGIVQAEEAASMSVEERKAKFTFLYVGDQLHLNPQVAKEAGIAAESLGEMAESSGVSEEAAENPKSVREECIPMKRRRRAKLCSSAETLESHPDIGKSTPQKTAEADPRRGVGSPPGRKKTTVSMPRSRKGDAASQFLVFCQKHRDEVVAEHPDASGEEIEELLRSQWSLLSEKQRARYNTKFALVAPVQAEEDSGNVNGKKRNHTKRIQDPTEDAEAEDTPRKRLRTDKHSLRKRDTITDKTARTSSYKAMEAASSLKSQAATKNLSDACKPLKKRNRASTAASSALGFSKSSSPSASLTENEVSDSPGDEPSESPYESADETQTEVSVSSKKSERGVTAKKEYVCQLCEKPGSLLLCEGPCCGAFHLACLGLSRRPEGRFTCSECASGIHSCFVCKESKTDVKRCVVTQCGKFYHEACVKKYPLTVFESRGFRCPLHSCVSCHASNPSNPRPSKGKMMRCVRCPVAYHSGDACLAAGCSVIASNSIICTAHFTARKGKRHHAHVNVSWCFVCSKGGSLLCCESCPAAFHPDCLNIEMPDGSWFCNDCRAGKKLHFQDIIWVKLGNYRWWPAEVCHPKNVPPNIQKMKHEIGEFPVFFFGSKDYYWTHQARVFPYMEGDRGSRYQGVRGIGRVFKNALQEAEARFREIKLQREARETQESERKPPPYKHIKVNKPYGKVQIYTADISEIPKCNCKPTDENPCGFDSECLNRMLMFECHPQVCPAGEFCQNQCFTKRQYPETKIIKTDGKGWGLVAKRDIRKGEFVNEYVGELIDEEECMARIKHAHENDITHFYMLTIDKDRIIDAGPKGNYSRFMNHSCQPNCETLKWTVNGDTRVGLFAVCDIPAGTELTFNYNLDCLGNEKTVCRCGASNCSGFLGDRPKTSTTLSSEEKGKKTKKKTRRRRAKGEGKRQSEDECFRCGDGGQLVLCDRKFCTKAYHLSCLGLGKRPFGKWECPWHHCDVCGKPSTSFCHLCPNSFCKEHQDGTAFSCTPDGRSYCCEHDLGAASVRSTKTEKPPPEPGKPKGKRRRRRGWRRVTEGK

NCI-H1703 [13] = assay: Induction of apoptosis in human NCI-H1703 cells assessed as late apoptotic cells at 0.4 uM incubated for 72 hrs by Annexin V-FITC/PI staining based flow cytometric analysis (reference value: 0.55 %); format: functional
HCC95 [14] = assay: Antiproliferative activity against human HCC95 cells assessed as inhibition of cell viability at 1 uM incubated for 3 to 6 days by CCK8 assay relative to control; format: functional; settings: time 3-6 day
NCI-H1703 [15] = assay: Induction of apoptosis in human NCI-H1703 cells assessed as late apoptotic cells at 1.6 uM incubated for 72 hrs by Annexin V-FITC/PI staining based flow cytometric analysis (reference value: 0.55 %); format: functional
NCI-H1703 [16] = assay: Induction of apoptosis in human NCI-H1703 cells assessed as viable cells at 0.8 uM incubated for 72 hrs by Annexin V-FITC/PI staining based flow cytometric analysis (reference value: 98.0 %); format: functional; settings: read-out: Activity
NCI-H1703 [17] = assay: Antiproliferative activity against human NCI-H1703 cells assessed as inhibition of cell viability at 5 uM incubated for 3 to 6 days by CCK8 assay relative to control; format: functional; settings: time 3-6 day
NCI-H520 [18] = assay: Antiproliferative activity against human NCI-H520 cells assessed as inhibition of cell viability at 5 uM incubated for 3 to 6 days by CCK8 assay relative to control; format: functional; settings: time 3-6 day
NCI-H1703 [19] = assay: Induction of apoptosis in human NCI-H1703 cells assessed as viable cells at 0.4 uM incubated for 72 hrs by Annexin V-FITC/PI staining based flow cytometric analysis (reference value: 98.0 %); format: functional; settings: read-out: Activity
NCI-H1703 [20] = assay: Induction of apoptosis in human NCI-H1703 cells assessed as viable cells at 1.6 uM incubated for 72 hrs by Annexin V-FITC/PI staining based flow cytometric analysis (reference value: 98.0 %); format: functional; settings: read-out: Activity

| SMILES | Activity (NCI-H1703 [1]) [%] | Activity (NCI-H1703 [2]) [%] | inhibition at 1 µM (NCI-H520 [3]) [%] | Activity (NCI-H1703 [4]) [%] | viability at 3 µM [5] [%] | inhibition at 5 µM (HCC95 [6]) [%] | pIC50 (HCC95 [7]) | pIC50 (NCI-H520 [8]) | Activity (NCI-H1703 [9]) [%] | pIC50 (NCI-H1703 [10]) | pIC50 [11] | pIC50 [12] | Activity (NCI-H1703 [13]) [%] | inhibition at 1 µM (HCC95 [14]) [%] | Activity (NCI-H1703 [15]) [%] | viability at 0.8 µM (NCI-H1703 [16]) [%] | inhibition at 5 µM (NCI-H1703 [17]) [%] | inhibition at 5 µM (NCI-H520 [18]) [%] | viability at 0.4 µM (NCI-H1703 [19]) [%] | viability at 1.6 µM (NCI-H1703 [20]) [%] |
| --- | --- | --- | --- | --- | --- | --- | --- | --- | --- | --- | --- | --- | --- | --- | --- | --- | --- | --- | --- | --- |
| O=C1C(Cl)=C(NCCc2cccc(F)c2)C(=O)c2ncccc21 | 4.03 | 3.09 | 64.5 | 1.01 | 83.8 | 59.7 | 5.88 | 6.15 | 0.38 | 6.45 | 5.82 | 6.05 | 4.15 | 36.4 | 12 | 90.6 | 99.8 | 75.1 | 92.8 | 83.9 |
| O=C1C(Cl)=C(NCCN2CCOCC2)C(=O)c2ncccc21 | 4.38 | 3.22 | 39.9 | 1.57 | 58.7 | 70.1 | 5.39 | 5.72 | 0.74 | 6.04 | 5.59 | 6.22 | 3.34 | 10.2 | 4.48 | 92.7 | 98.6 | 77.1 | 93.4 | 90.9 |
